{"source": "patent US20140357579A1", "about": "“SYNTHETIC PEPTIDE AMIDES AND DIMERS THEREOF” (priority 2006, published 2014)", "key": {"[1]": {"biological_target": "T1, mouse kappa opioid receptor (mKOR) (Mus musculus, UniProt P33534)", "T1 construct": "a mouse thymoma cell line that expresses only the kappa-opioid receptor and no other opioid receptor subtype; host or cells: R1.G1 mouse thymoma cells", "T1 sequence (P33534 whole entry)": "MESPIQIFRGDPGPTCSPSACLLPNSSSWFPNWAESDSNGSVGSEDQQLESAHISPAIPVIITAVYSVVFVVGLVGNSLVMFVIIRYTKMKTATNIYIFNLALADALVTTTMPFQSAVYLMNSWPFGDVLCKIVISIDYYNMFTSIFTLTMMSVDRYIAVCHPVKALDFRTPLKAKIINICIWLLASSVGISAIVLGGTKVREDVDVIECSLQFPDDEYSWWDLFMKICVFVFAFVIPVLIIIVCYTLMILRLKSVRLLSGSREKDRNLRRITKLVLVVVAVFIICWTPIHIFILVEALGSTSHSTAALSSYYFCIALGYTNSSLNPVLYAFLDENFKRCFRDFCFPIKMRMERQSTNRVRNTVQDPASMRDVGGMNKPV", "experiment": "Inhibition of forskolin-stimulated cAMP production in R1.G1 cells (TR-FRET cAMP immunoassay)", "type": "cell-based", "conditions": "R1.G1 cells"}, "[2]": {"biological_target": "T2, human kappa opioid receptor (hKOR) (Homo sapiens, UniProt P41145)", "T2 construct": "expressed in transfected cells; host or cells: HEK-293 cells (ATCC), transient transfection with pcDNA3-hOPRK1", "T2 sequence (P41145 whole entry)": "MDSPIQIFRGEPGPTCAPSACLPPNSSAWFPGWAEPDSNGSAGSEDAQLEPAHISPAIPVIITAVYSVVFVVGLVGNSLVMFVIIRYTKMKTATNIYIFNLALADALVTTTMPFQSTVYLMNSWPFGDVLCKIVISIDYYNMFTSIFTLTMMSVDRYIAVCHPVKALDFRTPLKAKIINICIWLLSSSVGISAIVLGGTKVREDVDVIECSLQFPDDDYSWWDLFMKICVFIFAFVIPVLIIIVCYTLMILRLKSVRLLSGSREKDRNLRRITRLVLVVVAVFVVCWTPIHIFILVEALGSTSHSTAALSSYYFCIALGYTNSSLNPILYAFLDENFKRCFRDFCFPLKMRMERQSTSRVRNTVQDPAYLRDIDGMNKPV", "experiment": "NFAT-luciferase reporter assay in HEK-293 cells transfected with human kappa opioid receptor and chimeric G-protein", "type": "cell-based"}, "mice [3]": {"test_system": "mice", "experiment": "Acetic acid-induced writhing assay in mice", "type": "in vivo", "conditions": "IRC mice, delivered subcutaneously"}, "mice [4]": {"test_system": "mice", "experiment": "Inhibition of locomotion in mice (sedation)", "conditions": "delivered subcutaneously"}, "CYP3A4": {"biological_target": "CYP3A4 (Homo sapiens, UniProt P08684)", "sequence (P08684 whole entry)": "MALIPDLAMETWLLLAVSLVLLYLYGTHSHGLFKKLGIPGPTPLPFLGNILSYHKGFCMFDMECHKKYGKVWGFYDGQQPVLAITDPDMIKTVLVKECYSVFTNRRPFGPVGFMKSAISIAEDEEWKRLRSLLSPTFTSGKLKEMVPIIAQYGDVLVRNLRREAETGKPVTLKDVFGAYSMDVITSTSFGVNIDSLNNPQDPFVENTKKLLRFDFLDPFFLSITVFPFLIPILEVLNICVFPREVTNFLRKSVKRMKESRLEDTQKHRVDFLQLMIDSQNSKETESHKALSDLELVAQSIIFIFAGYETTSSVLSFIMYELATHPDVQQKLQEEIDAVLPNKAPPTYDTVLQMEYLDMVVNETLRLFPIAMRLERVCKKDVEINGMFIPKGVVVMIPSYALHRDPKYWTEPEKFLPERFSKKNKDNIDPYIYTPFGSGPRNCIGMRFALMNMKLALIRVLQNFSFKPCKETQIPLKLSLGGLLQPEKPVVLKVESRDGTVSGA", "experiment": "Recombinant human cytochrome P450 CYP3A4 inhibition (Cerep)", "conditions": "10 uM test compound, percent remaining CYP activity"}, "CYP1A": {"test_system": "CYP1A", "experiment": "Cytochrome P450 CYP1A inhibition, human liver microsomes (Cerep)", "conditions": "10 uM test compound, percent remaining CYP activity"}, "CYP2C9": {"biological_target": "CYP2C9 (Homo sapiens, UniProt P11712)", "sequence (P11712 whole entry)": "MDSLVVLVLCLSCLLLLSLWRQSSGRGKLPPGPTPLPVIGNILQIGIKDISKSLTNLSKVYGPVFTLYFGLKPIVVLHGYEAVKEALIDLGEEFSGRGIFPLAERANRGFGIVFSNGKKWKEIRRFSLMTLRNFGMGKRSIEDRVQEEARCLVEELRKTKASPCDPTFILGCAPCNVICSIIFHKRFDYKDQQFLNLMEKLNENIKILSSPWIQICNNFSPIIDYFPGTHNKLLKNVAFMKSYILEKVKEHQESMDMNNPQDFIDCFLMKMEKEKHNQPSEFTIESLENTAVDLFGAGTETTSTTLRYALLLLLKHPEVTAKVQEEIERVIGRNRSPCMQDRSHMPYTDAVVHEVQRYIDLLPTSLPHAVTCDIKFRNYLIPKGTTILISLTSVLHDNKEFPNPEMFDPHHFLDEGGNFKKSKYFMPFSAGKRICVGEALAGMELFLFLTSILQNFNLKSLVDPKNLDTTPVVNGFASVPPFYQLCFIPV", "experiment": "Cytochrome P450 CYP2C9 inhibition, human liver microsomes (Cerep)", "conditions": "10 uM test compound, percent remaining CYP activity"}, "CYP2D6": {"biological_target": "CYP2D6 (Homo sapiens, UniProt P10635)", "sequence (P10635 whole entry)": "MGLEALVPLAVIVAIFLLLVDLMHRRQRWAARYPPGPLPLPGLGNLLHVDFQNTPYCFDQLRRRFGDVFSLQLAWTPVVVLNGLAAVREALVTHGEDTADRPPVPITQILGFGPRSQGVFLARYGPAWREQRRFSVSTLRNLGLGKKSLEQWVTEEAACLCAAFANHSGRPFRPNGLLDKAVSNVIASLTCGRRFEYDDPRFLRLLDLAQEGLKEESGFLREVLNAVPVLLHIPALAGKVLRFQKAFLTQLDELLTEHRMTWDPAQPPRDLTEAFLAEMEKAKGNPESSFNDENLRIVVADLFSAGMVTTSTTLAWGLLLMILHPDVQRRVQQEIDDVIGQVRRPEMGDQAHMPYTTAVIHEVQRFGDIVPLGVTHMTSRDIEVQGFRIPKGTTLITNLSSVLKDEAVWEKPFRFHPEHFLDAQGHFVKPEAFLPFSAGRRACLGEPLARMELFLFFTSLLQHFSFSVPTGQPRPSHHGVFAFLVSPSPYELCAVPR", "experiment": "Cytochrome P450 CYP2D6 inhibition, human liver microsomes (Cerep)", "conditions": "10 uM test compound, percent remaining CYP activity"}, "CYP2C19": {"biological_target": "CYP2C19 (Homo sapiens, UniProt P33261)", "sequence (P33261 whole entry)": "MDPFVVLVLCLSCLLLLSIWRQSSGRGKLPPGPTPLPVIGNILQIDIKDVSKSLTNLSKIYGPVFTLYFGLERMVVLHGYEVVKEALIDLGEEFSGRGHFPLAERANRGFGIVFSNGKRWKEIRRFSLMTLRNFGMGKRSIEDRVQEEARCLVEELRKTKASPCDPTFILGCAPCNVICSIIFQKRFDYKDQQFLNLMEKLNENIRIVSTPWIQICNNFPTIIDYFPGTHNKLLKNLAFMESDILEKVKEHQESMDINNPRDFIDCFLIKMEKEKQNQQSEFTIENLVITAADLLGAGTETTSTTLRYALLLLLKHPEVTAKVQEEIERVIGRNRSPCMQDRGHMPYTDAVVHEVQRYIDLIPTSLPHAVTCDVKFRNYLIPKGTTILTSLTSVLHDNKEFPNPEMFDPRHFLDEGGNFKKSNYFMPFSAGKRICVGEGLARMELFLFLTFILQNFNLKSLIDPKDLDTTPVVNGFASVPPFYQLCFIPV", "experiment": "Cytochrome P450 CYP2C19 inhibition, human liver microsomes (Cerep)", "conditions": "10 uM test compound, percent remaining CYP activity"}}, "data": [{"smiles": "CC(C)C[C@@H](NC(=O)[C@@H](Cc1ccccc1)NC(=O)[C@H](N)Cc1ccccc1)C(=O)N[C@H](CCCN)C(=O)N1CCCN(C2=NCCN2)CC1", "note": "[Compound 17, D-Phe-D-Phe-D-Leu-D-Orn-[4-(4,5-dihydro-1H-imidazol-2-yl)homopiperazine amide]]", "values": [{"measurement": "mKOR Efficacy(%)", "setting": "[1]", "result": 99, "unit": "%"}, {"measurement": "hKOR Efficacy(%)", "setting": "[2]; percent maximal activation compared to full induction by known kappa agonists", "result": 90, "unit": "%"}, {"measurement": "EC50", "setting": "[2]; transfected HEK-293 cells, luciferase reporter, read-out: hKOR EC50", "result": 0.12, "unit": "nM"}, {"measurement": "ED50 in the acetic acid-induced writhing assay", "setting": "mice [3]", "result": 0.074, "unit": "mg/kg"}, {"measurement": "ED50 in the inhibition of locomotion assay", "setting": "mice [4]", "result": 3.172, "unit": "mg/kg"}, {"measurement": "Percent Activity of CYP3A4", "setting": "CYP3A4; Expt 1", "result": 94.7, "unit": "%"}, {"measurement": "Percent Activity of CYP3A4", "setting": "CYP3A4; Expt 2", "result": 95.9, "unit": "%"}, {"measurement": "Percent Activity of CYP1A", "setting": "CYP1A; Expt 1", "result": 97.1, "unit": "%"}, {"measurement": "Percent Activity of CYP1A", "setting": "CYP1A; Expt 2", "result": 95.8, "unit": "%"}, {"measurement": "Percent Activity of CYP2C9", "setting": "CYP2C9; Expt 1", "result": 99.2, "unit": "%"}, {"measurement": "Percent Activity of CYP2C9", "setting": "CYP2C9; Expt 2", "result": 98.2, "unit": "%"}, {"measurement": "Percent Activity of CYP2D6", "setting": "CYP2D6; Expt 1", "result": 98.4, "unit": "%"}, {"measurement": "Percent Activity of CYP2D6", "setting": "CYP2D6; Expt 2", "result": 98.2, "unit": "%"}, {"measurement": "Percent Activity of CYP2C19", "setting": "CYP2C19; Expt 1", "result": 94.1, "unit": "%"}, {"measurement": "Percent Activity of CYP2C19", "setting": "CYP2C19; Expt 2", "result": 97.8, "unit": "%"}]}]}
